Results: ChEMBL document CHEMBL5724914, “Linking interpersonal differences in gut microbiota composition and drug biotransformation activity” (2024)

Key:
[1] = (§1) The drug is tested on Z-022 corresponding to mouse gut metagenome with ENA study accession number: PRJEB37062 and ENA sample accession number: ERS12561821 for biotransformation under anaerobic condition. The drug concentrations were measured over 9 timepoints collected between 0 and 24 hours of incubation by liquid-chromatography-coupled mass spectrometry (LC–MS); conditions: 2 µM
[2] = as §1, with “Z-006” for “Z-022”, “ERS12561806” for “ERS12561821”; conditions: 2 µM
[3] = human gut metagenome, 24 h, 2 µM
[4] = as §1, with “Z-013” for “Z-022”, “rabbit” for “mouse”, “ERS12561813” for “ERS12561821”; conditions: 2 µM
[5] = human gut metagenome, 24 h, 2 µM; remark: listed apart in the source
[6] = human gut metagenome, 24 h, 2 µM; remark: listed apart in the source
[7] = human gut metagenome, 24 h, 2 µM; remark: listed apart in the source
[8] = as §1, with “Z-007” for “Z-022”, “rat” for “mouse”, “ERS12561807” for “ERS12561821”; conditions: 2 µM
[9] = as §1, with “WLS-027” for “Z-022”, “human” for “mouse”, “ERS12561744” for “ERS12561821”; conditions: 2 µM
[10] = human gut metagenome, 24 h, 2 µM; remark: listed apart in the source
[11] = human gut metagenome, 24 h, 2 µM; remark: listed apart in the source
[12] = human gut metagenome, 24 h, 2 µM; remark: listed apart in the source
[13] = human gut metagenome, 24 h, 2 µM; remark: listed apart in the source
[14] = human gut metagenome, 24 h, 2 µM; remark: listed apart in the source
[15] = as §1, with “WLS-052” for “Z-022”, “human” for “mouse”, “ERS12561747” for “ERS12561821”; conditions: 2 µM
[16] = as §1, with “WLS-073” for “Z-022”, “human” for “mouse”, “ERS12561749” for “ERS12561821”; conditions: 2 µM
[17] = as §1, with “WLS-350” for “Z-022”, “human” for “mouse”, “ERS12561789” for “ERS12561821”; conditions: 2 µM
[18] = as §1, with “Z-021” for “Z-022”, “to” for “to mouse gut”, “ERS12561820” for “ERS12561821”; conditions: 2 µM
[19] = human gut metagenome, 24 h, 2 µM; remark: listed apart in the source
[20] = as §1, with “WLS-370” for “Z-022”, “human” for “mouse”, “ERS12561793” for “ERS12561821”; conditions: 2 µM
Further: call rule not given here.

Compound	Bacterial Biotransformation [1]	Bacterial Biotransformation [2]	Bacterial Biotransformation [3]	Bacterial Biotransformation [4]	Bacterial Biotransformation [5]	Bacterial Biotransformation [6]	Bacterial Biotransformation [7]	Bacterial Biotransformation [8]	Bacterial Biotransformation [9]	Bacterial Biotransformation [10]	Bacterial Biotransformation [11]	Bacterial Biotransformation [12]	Bacterial Biotransformation [13]	Bacterial Biotransformation [14]	Bacterial Biotransformation [15]	Bacterial Biotransformation [16]	Bacterial Biotransformation [17]	Bacterial Biotransformation [18]	Bacterial Biotransformation [19]	Bacterial Biotransformation [20]
COc1ccc(CN2CCNCC2)c(OC)c1OC.Cl.Cl [TRIMETAZIDINE DIHYDROCHLORIDE]	Compound NOT metabolized	Compound NOT metabolized	Compound NOT metabolized	Compound NOT metabolized	Compound NOT metabolized	Compound NOT metabolized	Compound NOT metabolized	Compound NOT metabolized	Compound NOT metabolized	Compound NOT metabolized	Compound NOT metabolized	Compound NOT metabolized	Compound NOT metabolized	Compound NOT metabolized	Compound NOT metabolized	Compound NOT metabolized	Compound NOT metabolized	Compound NOT metabolized	Compound NOT metabolized	Compound NOT metabolized
Nc1nc(N)nc(-c2cc(Cl)ccc2Cl)n1.O=C(O)/C=C\C(=O)O [IRSOGLADINE MALEATE]	Compound NOT metabolized	Compound NOT metabolized	Compound NOT metabolized	Compound NOT metabolized	Compound NOT metabolized	Compound NOT metabolized	Compound NOT metabolized	Compound NOT metabolized	Compound NOT metabolized	Compound NOT metabolized	Compound NOT metabolized	Compound NOT metabolized	Compound NOT metabolized	Compound NOT metabolized	Compound NOT metabolized	Compound NOT metabolized	Compound NOT metabolized	Compound NOT metabolized	Compound NOT metabolized	Compound NOT metabolized
CC(=O)OCC(=O)[C@@]1(OC(C)=O)[C@@H](C)C[C@H]2[C@@H]3C[C@H](F)C4=CC(=O)C=C[C@]4(C)[C@@]3(F)[C@@H](O)C[C@@]21C [DIFLORASONE DIACETATE]	Compound NOT metabolized	Compound metabolized	Compound metabolized	Compound metabolized	Compound metabolized	Compound metabolized	Compound metabolized	Compound NOT metabolized	Compound metabolized	Compound metabolized	Compound metabolized	Compound metabolized	Compound metabolized	Compound metabolized	Compound metabolized	Compound metabolized	Compound metabolized	Compound metabolized	Compound metabolized	Compound metabolized
